From patent publication US20050165064A1, “Novel thiol derivative, process for producing the same and use thereof” (priority 2003, published 2005) come the findings set out here.

A word on the inhibition: it is the drop in the measured response relative to a control, in per cent.

The target in this assay is Recombinant Human MMP-13 (Homo sapiens, UniProt P45452). The assay can be described thus: MMP-13 inhibitory activity, fluorescent synthetic substrate method. It is filed as biochemical. The settings on record: 8 nM APMA-activated enzyme, 10 μM substrate, 37° C., 1 hour. As for the experimental part:
The MMP-13 inhibitory activity was measured by a method using a fluorescent synthetic substrate. To a buffer solution for measurement (100 mM Tris-HCl, pH 7.4, 100 mM NaCl, 10 mM CaCl2) containing Recombinant Human MMP-13 (manufactured by Takeda Pharmaceuticals, Inc.) activated by APMA (1 mM) in a concentration of 8 nM, the compound dissolved in DMSO was added in a predetermined concentration. Subsequently, a fluorescent synthetic substrate (7-methoxycoumarin-4-yl)acetyl-Pro-Leu-Gly-Leu-(3-[2,4-dinitrophenyl]-L-2,3-diaminopropionyl)-Ala-Arg-NH2 was added thereto in a concentration of 10 μM to initiate the reaction. After incubation at 37° C. for 1 hour, a 500 mM acetate buffer (pH 3.0) was added to stop the reaction. The increase in the fluorescence intensity due to substrate decomposition was measured employing a CORONA MTP-32 plate reader under the condition of Ex/Em=340/400. The rate of inhibition of the enzymatic inhibitory activity was determined from the following equation: Rate of Inhibition (%)=100−(X−C)/(T−C)×100
T: Fluorescence intensity of the control with addition of enzyme and without addition of the compound
C: Fluorescence intensity of the control without addition of enzyme and without addition of the compound
X: Fluorescence intensity with addition of enzyme and with addition of the compound

Where a name gives a salt, the structure may show the parent alone.

Turning to `O=C1C[C@@H](S)CN1Cc1ccc(Oc2ccc(F)cc2)nc1` [Example 2, (4R)-1-{[6-(4-fluorophenoxy)pyridin-3-yl]methyl}-4-mercaptopyrrolidin-2-one hydrochloride], for the setting “compound 3 nM, read-out: rate of inhibition for MMP-13 activity”, the inhibition at 0.003 µM stood at 63%. Turning to `CCc1ccc(Oc2ccc(CN3C[C@H](S)CC3=O)cn2)cc1` [Example 12, (4R)-1-{[6-(4-ethylphenoxy)pyridin-3-yl]methyl}-4-mercaptopyrrolidin-2-one], under “compound 1.5 nM, read-out: rate of inhibition for MMP-13 activity”, the inhibition at 0.0015 µM worked out at 50%.

On to `CS(=O)(=O)Nc1ccc(Oc2ccc(CN3C[C@H](S)CC3=O)cn2)cc1` [Example 15], for which the “rate of inhibition for MMP-13 activity” value (compound 1.5 nM) is recorded as 67%.
